Data published in ChEMBL document CHEMBL2203105, “Structure-related cytotoxic activity of derivatives from kulokekahilide-2, a cyclodepsipeptide in Hawaiian marine mollusk” (Bioorg Med Chem Lett, 2012).

What was measured:
MCF7 = assay: Cytotoxicity against human MCF7 cells assessed as cell viability after 72 hrs by celltiter-blue assay; format: functional, cell-based; details: MCF7, 72 h
K562 = assay: Cytotoxicity against human K562 cells assessed as cell viability after 72 hrs by celltiter-blue assay; format: functional, cell-based; details: K562, 72 h
A549 = assay: Cytotoxicity against human A549 cells assessed as cell viability after 72 hrs by celltiter-blue assay; format: functional, cell-based; details: A549, 72 h
[1] = Chemical stability of the compound in DMSO by NMR analysis; format: physicochemical

CC[C@H](C)[C@H](NC(=O)CN(C)C(=O)[C@@H](Cc1ccccc1)N(C)C(=O)[C@H](C)NC(=O)[C@H](O)CC(C)C)C(=O)O
IC50 (MCF7): > 10000 nM | IC50 (K562): > 10000 nM | IC50 (A549): > 10000 nM

C/C=C(\C)[C@@H](O)[C@@H](C)[C@@H]1C/C=C(\C)C(=O)O[C@H](CC(C)C)C(=O)N[C@@H](C)C(=O)N(C)[C@H](Cc2ccc(Cl)cc2)C(=O)N(C)CC(=O)N[C@@H]([C@@H](C)CC)C(=O)N[C@H](C)C(=O)O1
IC50 (MCF7): 0.025 nM | IC50 (K562): 0.000216 nM | IC50 (A549): 2e-05 nM

C/C=C(\C)[C@H]1OC(=O)[C@@H](C)NC(=O)[C@H]([C@@H](C)CC)NC(=O)CN(C)C(=O)[C@@H](Cc2ccccc2)N(C)C(=O)[C@H](C)NC(=O)[C@@H](CC(C)C)OC(=O)/C(C)=C/C[C@H](OCSC)[C@@H]1C
IC50 (MCF7): 6.3 nM | IC50 (K562): 0.0063 nM | IC50 (A549): 0.00019 nM

C/C=C(\C)[C@@H](OC(=O)[C@@H](C)N)[C@@H](C)C(C/C=C(\C)C(=O)O[C@H](CC(C)C)C(=O)N[C@@H](C)C(=O)N(C)[C@H](Cc1ccccc1)C(=O)N(C)CC(=O)N[C@H](C(=O)O)[C@@H](C)CC)OCSC (single isomer, unassigned)
IC50 (MCF7): > 10000 nM | IC50 (K562): > 10000 nM | IC50 (A549): > 10000 nM

C/C=C(\C)[C@@H](O)[C@@H](C)[C@@H]1C/C=C(\C)C(=O)O[C@H](CC(C)C)C(=O)N[C@@H](C)C(=O)N(C)[C@H](Cc2ccccc2)C(=O)N(C)CC(=O)N[C@@H]([C@@H](C)CC)C(=O)N[C@H](C)C(=O)O1
IC50 (MCF7): 0.29 nM | IC50 (K562): 0.012 nM | IC50 (A549): 0.0014 nM | Stability [1]: Stable

C/C=C(\C)[C@@H](O)[C@@H](C)[C@@H]1C/C=C(\C)C(=O)O[C@H](CC(C)C)C(=O)N[C@H](C)C(=O)N(C)[C@H](Cc2ccccc2)C(=O)N(C)CC(=O)N[C@@H]([C@@H](C)CC)C(=O)N[C@H](C)C(=O)O1
IC50 (MCF7): 3690 nM | IC50 (K562): 925 nM | IC50 (A549): 1080 nM

C/C=C(\C)[C@H]1OC(=O)[C@@H](C)NC(=O)[C@H]([C@@H](C)CC)NC(=O)CN(C)C(=O)[C@@H](Cc2ccc(Cl)cc2)N(C)C(=O)[C@H](C)NC(=O)[C@@H](CC(C)C)OC(=O)/C(C)=C/C[C@H](O)[C@@H]1C
IC50 (MCF7): 0.003 nM | IC50 (K562): 1.1e-05 nM | IC50 (A549): 1e-05 nM

C/C=C(\C)[C@H]1OC(=O)[C@@H](C)NC(=O)[C@H]([C@@H](C)CC)NC(=O)CN(C)C(=O)[C@@H](Cc2ccccc2)N(C)C(=O)[C@@H](C)NC(=O)[C@@H](CC(C)C)OC(=O)/C(C)=C/C[C@H](OCSC)[C@@H]1C
IC50 (MCF7): > 10000 nM | IC50 (K562): 1190 nM | IC50 (A549): 4340 nM

C/C=C(\C)[C@H]1OC(=O)[C@@H](C)NC(=O)[C@H]([C@@H](C)CC)NC(=O)CN(C)C(=O)[C@@H](Cc2ccccc2)N(C)C(=O)[C@@H](C)NC(=O)[C@@H](CC(C)C)OC(=O)/C(C)=C/C[C@H](O)[C@@H]1C
IC50 (MCF7): 1640 nM | IC50 (K562): 584 nM | IC50 (A549): 1040 nM

C/C=C(\C)[C@H]1OC(=O)[C@@H](C)NC(=O)[C@H]([C@@H](C)CC)NC(=O)CN(C)C(=O)[C@@H](Cc2ccccc2)N(C)C(=O)[C@H](C)NC(=O)[C@@H](CC(C)C)OC(=O)/C(C)=C/C[C@H](O)[C@@H]1C
IC50 (MCF7): 0.22 nM | IC50 (K562): 0.0031 nM | IC50 (A549): 0.0021 nM | Stability [1]: Stable

C/C=C(\C)[C@H]1OC(=O)[C@@H](C)NC(=O)[C@H]([C@@H](C)CC)NC(=O)CN(C)C(=O)[C@@H](Cc2ccc(Cl)cc2)N(C)C(=O)[C@H](C)NC(=O)[C@@H](CC(C)C)OC(=O)/C(C)=C/C[C@H](OCSC)[C@@H]1C
IC50 (MCF7): 6.5 nM | IC50 (K562): 7.1 nM | IC50 (A549): 0.73 nM

C/C=C(\C)[C@H]1OC(=O)[C@@H](C)NC(=O)[C@H]([C@@H](C)CC)NC(=O)CN(C)C(=O)[C@@H](Cc2ccccc2)N(C)C(=O)[C@H](C)NC(=O)[C@@H](CC(C)C)OC(=O)/C(C)=C/C[C@H](OC(=O)c2ccccc2)[C@@H]1C
IC50 (MCF7): 2.9 nM | IC50 (K562): 1.8 nM | IC50 (A549): 0.00058 nM
